For the assay, the target named is T1, Ox-R2 (orexin R2 receptor) (Homo sapiens, UniProt O43614).
T1 construct: gene HCRTR2
T1 sequence (O43614 1-444): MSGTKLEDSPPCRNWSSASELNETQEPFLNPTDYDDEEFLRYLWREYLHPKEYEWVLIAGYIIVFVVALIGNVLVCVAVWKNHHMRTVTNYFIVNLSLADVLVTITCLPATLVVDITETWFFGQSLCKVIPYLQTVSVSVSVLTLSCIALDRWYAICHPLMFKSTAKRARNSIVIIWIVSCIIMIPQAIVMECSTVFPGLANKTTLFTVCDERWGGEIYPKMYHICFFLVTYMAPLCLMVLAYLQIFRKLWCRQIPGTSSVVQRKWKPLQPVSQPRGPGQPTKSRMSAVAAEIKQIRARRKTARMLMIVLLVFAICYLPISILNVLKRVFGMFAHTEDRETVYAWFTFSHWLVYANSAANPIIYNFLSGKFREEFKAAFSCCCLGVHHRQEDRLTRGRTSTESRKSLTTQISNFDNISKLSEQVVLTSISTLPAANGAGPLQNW
Nature of the assay: FLUO-3 calcium mobilization in HEK-293 cells, inhibition of […] orexin-B response. In kind it is cell-based.

For orientation: IC50 means the concentration that gives 50% inhibition.

As to `CNC(=O)[C@@H](c1ccccc1)N1CCc2cc(OC)c(OC)cc2[C@@H]1CCc1ccc(C(F)(F)F)cc1` [almorexant], the IC50 came out at 332 ± 13 nM.
